# Laboratory results as given in patent US20060100290A1, “Treatment of allergic rhinitis and asthma” (priority 2003, published 2006).
# System: allergic rhinitis and asthma
# Assay: Treatment of human patients with allergic rhinitis and/or asthma with daily atomoxetine (case reports, Examples 1-4)
# Type: in vivo, humans
# Experimental: A person with a 24 year history of severe allergic rhinitis, immunotherapy failure, and a 10 year history of moderate persistent asthma was given a 100 mg daily dose of atomoxetine. […]
# Here, as is known in the art, FEV1 percent is the ratio of FEV1 to the predicted FEV1, which is obtained from standardized tables based on age, weight, height, and sex; FEV1 is the volume of air that is forcefully exhaled from the lungs in one second.
# [1] = Example 3: person, allergic rhinitis, 80 mg daily dose
smiles,measurement,setting,value
"CNCC[C@@H](Oc1ccccc1C)c1ccccc1.Cl [atomoxetine, (R)-(−)-N-methyl-3-(2-methylphenoxy)-3-phenylpropylamine]",symptom status on atomoxetine mono therapy,"Example 1: person, 60 mg daily dose, monitored during the following year",remained symptom free during the entire period of monitoring
same,time until able to wean all traditional allergic rhinitis and asthma treatments,"Example 1: person, allergic rhinitis and moderate persistent asthma, 60 mg daily dose",three
same,symptom status on atomoxetine mono therapy,"Example 2: person, 100 mg daily dose, monitored during the following 10 months",remained symptom free during the entire period of monitoring
same,time until able to wean all traditional allergic rhinitis and asthma treatments,"Example 2: person, severe allergic rhinitis and moderate persistent asthma, 100 mg daily dose",≤ 10 days
same,time remained symptom free with atomoxetine mono therapy,[1],at least nine
same,time until able to wean all traditional allergic rhinitis treatments,[1],≤ 7 days
same,time remained symptom free with atomoxetine mono therapy,"Example 4: person, 80 mg daily dose",at least 7 months
same,"FEV1 percent (ratio of FEV1 to predicted FEV1), pulmonary function test","Example 4: person, 80 mg daily dose, after 6 weeks of atomoxetine mono therapy, 68% on traditional treatments before",93%
same,time until able to wean all traditional allergic rhinitis and asthma treatments,"Example 4: person, allergic rhinitis and moderate persistent asthma, 80 mg daily dose",≤ 10 days
